Read-outs that look alike come from different tables or passages of the source.
Legend:
[1] = test system: SARS-CoV-1 (Urbani) Spike-pseudotyped GFP reporter lentiviral particles; type: cell-based
SARS-CoV-2 = type: cell-based; details: 25 mg/mL incubated with 10^5 TCID50/mL virus, 37° C., 60 minutes; titrated on Vero cells
[2] = test system: Coronavirus strain OC43 (ZeptoMetrix Corp. #0810024CF); details: final 28.76 mg/mL; for CPE in four replicates, Test: HCT-8
[3] = test system: SARS-CoV-2 (2019-nCoV/USA-WA1/2020); experiment: microbe, parasite or virus in culture; type: cell-based; details: Day 4 post-infection
MRC-5 cells = details: no virus
HCT-8 cells = details: no virus
[4] = test system: SARS-CoV-2 (2019-nCoV/USA-WAl/2020 strain); type: in vivo, human ACE2 transgenic mice K18-hACE2; details: 1%, 3% or 5% SPL7013 in PBS intranasally for 7 days (0.5, 1.5, 2.5 mg daily); significant vs control at the highest dose
[5] = test system: Human Respiratory Syncytial Virus; experiment: Antiviral pre-treatment and post-treatment plaque tests (RSV); type: cell-based, Human respiratory syncytial virus (HRSV); details: Hep-2 cells
Method: The concentrations of the Test Product were prepared using approximately 1:3 dilutions from the starting concentration determined following the cytotoxicity test.
The host cell culture was washed with PBS, and 1.0 mL aliquots of test product dilutions added to the cells. Cells were then incubated for 1 hour ± 15 minutes for equilibration. After the incubation, 1.0 mL aliquots of virus was added to the wells and incubated for 1 hour ± 15 minutes for virus adsorption. Following incubation, the mixture was removed and replaced with TM. The plates were then incubated in a CO2 incubator. The plates were incubated until viral plaques in the virus control could be microscopically registered (approximately 5-10 days).
Fixed cells were stained using Crystal Violet stain. Unstained zones of cell lysis (viral plaques) were counted.
The concentrations of the test product were prepared using approximately 1:3 dilutions from the starting concentration determined following the cytotoxicity test.
The host cell culture was washed with PBS, and 1.0 mL aliquots of virus added to the wells and incubated for 1 hour ± 15 minutes for virus adsorption. After incubation, virus inoculum was removed and replaced with aliquots of the test product concentrations in TM. The plates were then incubated in a CO2 incubator. The plates were then incubated until viral plaques in the virus control can be microscopically registered (approximately 5-10 days).
For the cell culture control, intact cell culture monolayers were used as the control of cell viability. The GM was replaced by TM in the cell culture control wells. […] Fixed cells were stained using Crystal Violet stain. Unstained zones of cell lysis (viral plaques) were counted.
Assessment of antiviral properties: The antiviral properties EC50 and/or EC90 was determined using non-linear regression analysis, GraphPad Prism 5.0 software.

[6] = test system: MERS-CoV (HCoV-EMC) Spike-pseudotyped GFP reporter lentiviral particles; type: cell-based
[7] = test system: SARS-CoV-2 (2019-nCoV/USA-WA1/2020); experiment: Virucidal evaluation with neutralization through sucrose cushion, plaque assay; type: cell-based; details: for Reduction vs. Virus Control (%) / Reduction vs. Virus Control (Log10± SD): 10 mg/mL
Vero E6 cells = details: Day 4
Vero cells = details: no virus
[8] = 10^4 pfu/mL, 5 sec incubation, 96 hours post-infection, Vero E6
[9] = 10^4 pfu/mL, 10 sec incubation, 96 hours post-infection, Vero E6
[10] = 10^4 pfu/mL, 30 sec incubation, 16 hours post-infection, Vero E6
[11] = 10^4 pfu/mL, 30 sec incubation, 96 hours post-infection, Vero E6
[12] = 10^4 pfu/mL, 1 min incubation, 16 hours post-infection, Vero E6
[13] = 10^4 pfu/mL, 1 min incubation, 96 hours post-infection, Vero E6
[14] = 10^4 pfu/mL, 5 min incubation, 16 hours post-infection, Vero E6
[15] = 10^4 pfu/mL, 10 min incubation, 96 hours post-infection, Vero E6
[16] = 10^4 pfu/mL, 15 min incubation, 16 hours post-infection, Vero E6
[17] = 10^4 pfu/mL, 15 min incubation, 96 hours post-infection, Vero E6
[18] = 10^5 pfu/mL, 5 sec incubation, 96 hours post-infection, Vero E6
[19] = 10^5 pfu/mL, 10 sec incubation, 96 hours post-infection, Vero E6
[20] = 10^5 pfu/mL, 30 sec incubation, 16 hours post-infection, Vero E6
[21] = 10^5 pfu/mL, 30 sec incubation, 96 hours post-infection, Vero E6
[22] = 10^5 pfu/mL, 1 min incubation, 16 hours post-infection, Vero E6
[23] = 10^5 pfu/mL, 1 min incubation, 96 hours post-infection, Vero E6
[24] = 10^5 pfu/mL, 5 min incubation, 16 hours post-infection, Vero E6
[25] = 10^5 pfu/mL, 10 min incubation, 96 hours post-infection, Vero E6
[26] = 10^5 pfu/mL, 15 min incubation, 16 hours post-infection, Vero E6
[27] = 10^5 pfu/mL, 15 min incubation, 96 hours post-infection, Vero E6
[28] = 10^6 pfu/mL, 5 sec incubation, 96 hours post-infection, Vero E6
[29] = 10^6 pfu/mL, 10 sec incubation, 96 hours post-infection, Vero E6
[30] = 10^6 pfu/mL, 30 sec incubation, 96 hours post-infection, Vero E6
[31] = 10^6 pfu/mL, 1 min incubation, 96 hours post-infection, Vero E6
[32] = 10^6 pfu/mL, 10 min incubation, 96 hours post-infection, Vero E6
[33] = 10^6 pfu/mL, 15 min incubation, 96 hours post-infection, Vero E6

astodrimer sodium [SPL7013]
binding/infection of Vero E6 cells by spike-pseudotyped lentivirus (GFP-positive cells, FACS) [1]: potently inhibited
viricidal activity (SARS-CoV-2): stopped all virus growth
CPE in four replicates, Test ([2]; 60 seconds exposure, dilution (-Log10) -6): 0000
CPE in four replicates, Test ([2]; 60 seconds exposure, dilution (-Log10) -7): 0000
Log10 Reduction ([2]; 60 seconds exposure): 0.50 log10
TCID50 (log10), Test ([2]; 60 seconds exposure): 5.50 log10
Percent Reduction ([2]; 60 seconds exposure, listed as SPL7013 aqueous solution): 68.38%
CPE in four replicates, Test ([2]; 60 minutes exposure, dilution (-Log10) -6): +000
CPE in four replicates, Test ([2]; 60 minutes exposure, dilution (-Log10) -7): 0000
Log10 Reduction ([2]; 60 minutes exposure): 0.50 log10
Percent Reduction ([2]; 60 minutes exposure): 68.38%
TCID50 (log10), Test ([2]; 60 minutes exposure): 5.25 log10
EC50 ([3]; added 1-hour post-infection, Calu-3): 30 µg/mL
EC50 ([3]; added 1-hour post-infection, Vero E6): 19 µg/mL
EC50 ([3]; added 1-hour pre-infection, Calu-3): 37 µg/mL
EC50 ([3]; added 1-hour pre-infection, Vero E6): 32 µg/mL
EC50 ([3]; added at time of infection, Calu-3): 35 µg/mL
EC50 ([3]; added at time of infection, Vero E6): 20 µg/mL
TCID50 (log10), CTC (Cytotoxicity Control) (MRC-5 cells): 1.50 log10
CPE in four replicates, CTC (Cytotoxicity Control) (MRC-5 cells; dilution (-Log10) -2): 0000
CPE in four replicates, CTC (Cytotoxicity Control) (MRC-5 cells; dilution (-Log10) -3): 0000
CPE in four replicates, CTC (Cytotoxicity Control) (MRC-5 cells; dilution (-Log10) -4): 0000
TCID50 (log10), CTC (Cytotoxicity Control) (HCT-8 cells): 1.50 log10
CPE in four replicates, CTC (Cytotoxicity Control) (HCT-8 cells; dilution (-Log10) -2): 0000
CPE in four replicates, CTC (Cytotoxicity Control) (HCT-8 cells; dilution (-Log10) -3): 0000
CPE in four replicates, CTC (Cytotoxicity Control) (HCT-8 cells; dilution (-Log10) -4): 0000
viral copies (qPCR) in nasal swabs at Day 7 [4]: dose dependent decrease
EC50, Best Fit Value ([5]; Post Treatment): 107 µg/mL
EC90, Best Fit Value ([5]; Post Treatment): 1159 µg/mL
EC50, Best Fit Value ([5]; PreTreatment): 45 µg/mL
EC90, Best Fit Value ([5]; PreTreatment): 180 µg/mL
binding/infection of Vero E6 cells by spike-pseudotyped lentivirus (GFP-positive cells, FACS) [6]: potently inhibited
Reduction vs. Virus Control (%) [7, 8]: -35.936%
Reduction vs. Virus Control (Log10± SD) [7, 8]: -0.13 ± 0.21 Log10
Reduction vs. Virus Control (%) [7, 9]: 14.230%
Reduction vs. Virus Control (Log10± SD) [7, 9]: 0.07 ± 0.29 Log10
Reduction vs. Virus Control (%) [7, 10]: 36.904%
Reduction vs. Virus Control (Log10± SD) [7, 10]: 0.20 ± 0.20 Log10
Reduction vs. Virus Control (%) [7, 11]: 20.567%
Reduction vs. Virus Control (Log10± SD) [7, 11]: 0.10 ± 0.10 Log10
Reduction vs. Virus Control (%) [7, 12]: 99.932%
Reduction vs. Virus Control (Log10± SD) [7, 12]: 3.17 ± 0.12 Log10
Reduction vs. Virus Control (%) [7, 13]: 20.567%
Reduction vs. Virus Control (Log10± SD) [7, 13]: 0.10 ± 0.00 Log10
Reduction vs. Virus Control (%) [7, 14]: 99.979%
Reduction vs. Virus Control (Log10± SD) [7, 14]: 3.67 ± 0.21 Log10
Reduction vs. Virus Control (%) [7, 15]: >99.999%
Reduction vs. Virus Control (Log10± SD) [7, 15]: 5.07 ± 0.25 Log10
Reduction vs. Virus Control (%) [7, 16]: 99.990%
Reduction vs. Virus Control (Log10± SD) [7, 16]: 4.00 ± 0.10 Log10
Reduction vs. Virus Control (%) [7, 17]: >99.999%
Reduction vs. Virus Control (Log10± SD) [7, 17]: 5.83 ± 0.12 Log10
Reduction vs. Virus Control (%) [7, 18]: 53.584%
Reduction vs. Virus Control (Log10± SD) [7, 18]: 0.33 ± 0.21 Log10
Reduction vs. Virus Control (%) [7, 19]: 41.566%
Reduction vs. Virus Control (Log10± SD) [7, 19]: 0.23 ± 0.06 Log10
Reduction vs. Virus Control (%) [7, 20]: 0.000%
Reduction vs. Virus Control (Log10± SD) [7, 20]: 0.00 ± 0.36 Log10
Reduction vs. Virus Control (%) [7, 21]: 49.881%
Reduction vs. Virus Control (Log10± SD) [7, 21]: 0.30 ± 0.17 Log10
Reduction vs. Virus Control (%) [7, 22]: 99.767%
Reduction vs. Virus Control (Log10± SD) [7, 22]: 2.63 ± 0.15 Log10
Reduction vs. Virus Control (%) [7, 23]: 65.855%
Reduction vs. Virus Control (Log10± SD) [7, 23]: 0.47 ±0.21 Log10
Reduction vs. Virus Control (%) [7, 24]: 99.998%
Reduction vs. Virus Control (Log10± SD) [7, 24]: 4.63 ± 0.31 Log10
Reduction vs. Virus Control (%) [7, 25]: 99.980%
Reduction vs. Virus Control (Log10± SD) [7, 25]: 3.70 ± 0.26 Log10
Reduction vs. Virus Control (%) [7, 26]: 99.998%
Reduction vs. Virus Control (Log10± SD) [7, 26]: 4.60 ± 0.10 Log10
Reduction vs. Virus Control (%) [7, 27]: 99.998%
Reduction vs. Virus Control (Log10± SD) [7, 27]: 4.60 ± 0.10 Log10
Reduction vs. Virus Control (%) [7, 28]: 20.567%
Reduction vs. Virus Control (Log10± SD) [7, 28]: 0.10 ± 0.20 Log10
Reduction vs. Virus Control (%) [7, 29]: 7.388%
Reduction vs. Virus Control (Log10± SD) [7, 29]: 0.03 ± 0.06 Log10
Reduction vs. Virus Control (%) [7, 30]: 20.567%
Reduction vs. Virus Control (Log10± SD) [7, 30]: 0.10 ± 0.10 Log10
Reduction vs. Virus Control (%) [7, 31]: 53.584%
Reduction vs. Virus Control (Log10± SD) [7, 31]: 0.33 ± 0.12 Log10
Reduction vs. Virus Control (%) [7, 32]: 99.369%
Reduction vs. Virus Control (Log10± SD) [7, 32]: 2.20 ± 0.10 Log10
Reduction vs. Virus Control (%) [7, 33]: 99.979%
Reduction vs. Virus Control (Log10± SD) [7, 33]: 3.67 ± 0.23 Log10
reduction in virus infectivity ([7]; 1 to 30 mg/mL, inoculums 10^4, 10^5 and 10^6 pfu/mL, 10 to 15 minutes exposure): > 99.9%
reduction in virus infectivity ([7]; 10^4 pfu/mL viral inoculum, 10 to 30 mg/mL, 10 to 15 min incubation): > 99.999%
SARS-CoV-2 inactivated ([7]; >10 mg/mL, 10^4 pfu/mL, within as little as 1 minute of exposure, 16 hours post-infection): > 99.9%
reduced infectivity ([7]; Vero E6, 10^6 pfu/mL, incubation 15 to 30 minutes, 10 to 30 mg/mL): > 99.999%
reduction of infectivity ([7]; after 1 minute of exposure to the virus): > 99.9%
virucidal effect ([7]; exposure to virus for 30 seconds): no detectable virucidal effect
CC50 (Vero E6 cells): 15090 µg/mL
TCID50 (log10), CTC (Cytotoxicity Control) (Vero cells): 1.50 log10
CPE in four replicates, CTC (Cytotoxicity Control) (Vero cells; dilution (-Log10) -2): 0000
CPE in four replicates, CTC (Cytotoxicity Control) (Vero cells; dilution (-Log10) -3): 0000
CPE in four replicates, CTC (Cytotoxicity Control) (Vero cells; dilution (-Log10) -4): 0000

From patent US20230330134A1, “METHOD OF PROPHYLAXIS OF CORONAVIRUS AND/OR RESPIRATORY SYNCYTIAL VIRUS INFECTION” (Starpharma Pty Ltd., priority 2020, published 2023)
